Reference: patent US6890727B2, “Diagnostic assay for Alzheimer's disease: assessment of Aβ abnormalities” (The General Hospital Corporation, priority 1994, dated 2005)

Key:
human Aβ1-40 = molecular target: T1, human Aβ1-40 (Homo sapiens, UniProt P05067); assay: Human Aβ1-40 aggregation (0.2μ filtration) after incubation with various metal ions; type: physicochemical; details: metal ions 3 μM, equimolar basis, peptide 1.6 μM
T1 construct: made in house; host or cells: chemical synthesis (solid-phase Fmoc)
T1 sequence (P05067 672-711): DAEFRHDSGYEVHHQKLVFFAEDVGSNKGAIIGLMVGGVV
From the text: The atomic number of the metal species is indicated. […] Data points are in duplicate.

trypsin [1] = assay: Tryptic digestion of Aβ after incubation with Zn2+; type: biochemical; details: Zn^2+ 200 μM
Description: (§1) Tryptic Digestion of Aβ-Aβ1-40 (13.9 μg) was incubated with Zn^2+ ([…] in blocking buffer, 1 h, 37° C.) and then digested with trypsin (12 ng, 3 h, 37° C.). The reaction was stopped by adding SDS sample buffer containing phenylmethylsulfonyl fluoride (1 mM), boiling the samples (5 min), and applying the samples to Tris/Tricine gel electrophoresis and transfer. The blot was washed with EDTA, Coomassie-stained, incubated with ^65Zn^2+, individual bands were excised, assayed for ^65Zn^2+ binding, and N-terminal sequenced to confirm the identity of the digestion products. The effects of Zn^2+ (up to 100 μM in TBS) on the activity of trypsin, itself, were assayed by assay of Z-Arg-amido-4-methylcoumarin (Sigma) fluorescent cleavage product and determined to be negligible.
(FIG. 4a) depicts a blot of tryptic digests of Aβ (13.9 μg) after incubation with increasing concentrations of zinc (lane labels, in micromolar), stained by Coomassie Blue. […] The migration of the low molecular size markers (STD) are indicated (in kilodaltons) on the right. (FIG. 4b) depicts ^65Zn^2+ binding to Aβ tryptic digestion products. The blot in 4a was incubated with ^65Zn^2+, the visible bands excised, and the bound counts for each band determined.

Aβ [2] = molecular target: T2, Aβ (Homo sapiens, UniProt P05067); assay: G50 gel filtration chromatography of Aβ in presence of metal ions or EDTA; details: 25 μM total metal ion
T2 construct: purchased Sigma; Bachem (results also replicated with peptide from the Keck Laboratory, Yale); host or cells: chemical synthesis
T2 sequence (P05067 672-711): as above
Description: Aβ was stored in aliquots of 0.52 mg/ml in water at −20° C., then kept at 4° C. when thawed. Reagents were mixed without vortex mixing. The incubated Aβ was directly applied to a G50 SF (Pharmacia, Uppsala, Sweden) column (Bio-Rad Econo-Column, 30×0.7 cm) pre-equilibrated with metal salt solution or EDTA (50 μM) in TBS at 20° C. and eluted at 8 ml/h (Wiz peristaltic pump, Isco, Lincoln, Nebr.). Absorbance was measured at 254 and 214 nm (Type 6 optical unit, Isco). The amount of Aβ eluting at various peaks was estimated from the area under the curve. […] Because the sample eluted in a volume of approximately 15 ml, the average concentration of the peptide on the column was 0.8 μM.
To study the effects of protein blocking upon adsorption of β to the chromatography column, a Sephadex G50 SF column which had been characterized previously for Aβ behavior was eluted with 3% bovine serum albumin (BSA) in TBS (50 ml) and equilibrated with non-BSA-containing buffer, subsequent to repeating the Aβ experiments.
The elution points of molecular mass standards and relative assignments of Aβ peak elutions are indicated. Mass standards were blue dextran (2×10^6 kDa, V0=void volume), BSA (66 kDa), carbonic anhydrase (29 kDa), cytochrome c (12.4 kDa), and aprotinin (6.5 kDa). The mass of Aβ is 4.3 kDa. […] Data for experiments performed in the presence of copper were taken from 214 nm readings and corrected for comparison.

Aβ [3] = molecular target: T2, Aβ; assay: SDS Tris/Tricine gel electrophoresis of Aβ incubated with Zn2+; details: Zn^2+ 200 μM, 1-24 h, 20° C.
Description: To further test whether zinc induces irreversible precipitation of Aβ in the absence of kaolin, Aβ incubated with Zn^2+ (200 μM, 1-24 h, 20° C.) was subjected to SDS Tris/Tricine gel electrophoresis.

trypsin [4] = assay: Trypsin activity, Z-Arg-amido-4-methylcoumarin fluorescent cleavage product; type: biochemical; details: Zn^2+ up to 100 μM in TBS
Description: as §1

[Zn+2] [Zn^2+, zinc]
induction of aggregation of human Aβ1-40 among metal ions tested (human Aβ1-40): induce significant aggregation | inhibition of Aβ hydrolysis by trypsin (trypsin [1]): complete inhibition | Aβ applied to the column that is eluted (Aβ [2]): < 20% | covalent or SDS-resistant polymerization of Aβ (Aβ [3]): does not induce covalent or SDS-resistant polymerization | effects on the activity of trypsin itself (trypsin [4]): negligible
